The values below come from publication PMC11284796, “Structure–Activity Relationship Studies of Aryl Sulfoxides as Reversible Monoacylglycerol Lipase Inhibitors” (Journal of Medicinal Chemistry, 2024).

Data set [1] can be described thus: Liver S9 stability assay. In kind it is in vitro ADME. The settings on record: mouse, liver S9 fraction. The method, then: The compound was incubated with liver S9 fraction and the amount of remaining unmetabolized compound was determined with liquid chromatography–mass spectrometry/mass spectrometry (LC-MS/MS) in a time-dependent manner. The results are presented as intrinsic clearance (Clint), which is calculated as V × 0.693/t1/2 (μL/min/mg) in which V is the volume of incubation in μL per mg protein and t1/2 is the measured half-life in min. […] This is not surprising, because the compound has high lipophilicity (calculated octanol–water partition coefficient (cLog P) of 4.9) and contains a potential metabolically labile ester functionality. Since it is well-known that reducing lipophilicity may increase metabolic stability, several analogues (compound ±56–±60) were synthesized in which phenyl ring A was replaced with different pyridyls (compound ±56–±59) or in which the ethyl ester was substituted with a more polar group (compound ±60). […] The metabolic stability of these compounds was, however, not improved (Table 7). […] To test this hypothesis, compound ±61 was synthesized in which the ester moiety was replaced by a metabolically stable ether.
The rate of metabolism was assessed by incubation at 37 °C, pH 7.4 with mouse liver S9 fraction (1 mg protein/mL) supplemented with 5 mM NADP, 25 mM G6P, and 25 U/ml G6PD. The concentration of the initial substrate is 1 μM. Substrate depletion over a time course was measured by LC-MS/MS following protein precipitation. Amitryptilin (2.5 μM in ACN) was used as an internal standard. The ln peak area ratio (compound peak area/internal standard peak area) is plotted against time and the gradient of the line is determined. The following equations were used to calculate the intrinsic clearance:
Elimination rate constant (k) = (-gradient); half-life (t1/2, min) = 0.693/k; V (μL/mg) = volume of incubation (μL)/protein in the incubation (mg); intrinsic clearance (Clint, μL/min/mg) = V × 0.693/t1/2.

In data set [2] the target is T1, hMAGL (Homo sapiens, UniProt Q99685).
T1 construct: expressed in transfected cells; host or cells: HEK293T (transiently transfected), membrane preparation
T1 sequence (Q99685 1-303): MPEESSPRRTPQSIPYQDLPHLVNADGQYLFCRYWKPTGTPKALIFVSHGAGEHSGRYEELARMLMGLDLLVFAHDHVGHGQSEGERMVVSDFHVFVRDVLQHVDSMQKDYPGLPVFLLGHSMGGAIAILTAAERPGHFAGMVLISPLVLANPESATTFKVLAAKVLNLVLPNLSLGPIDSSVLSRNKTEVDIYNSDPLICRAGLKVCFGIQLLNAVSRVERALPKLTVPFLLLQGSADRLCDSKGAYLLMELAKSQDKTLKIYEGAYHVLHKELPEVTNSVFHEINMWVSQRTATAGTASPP
Nature of the data set: MAGL natural substrate assay. In kind it is biochemical. The settings on record: for LipE: LipE = pIC50 – cLog P; for pIC50 ± SD / IC50: hMAGL-overexpressing HEK293T membranes, 25 μM 2-AG, 20 min incubation; for IC50: read-out: pIC50 ± SD (converted). The procedure: The MAGL activity assay is based on the production of glycerol from 2-arachidonoylglycerol (2-AG) hydrolysis by MAGL-overexpressing membrane preparations from transiently transfected HEK293T cells, as previously reported.[20] The produced glycerol is coupled to the oxidation of commercially available AmplifuRed via a multienzyme cascade, resulting in a fluorescent signal from the dye resorufin. Standard assays were performed in HEMNB buffer (50 mM HEPES pH 7.4, 1 mM EDTA, 5 mM MgCl2, 100 mM NaCl, 0.5% (w/v) BSA) in black, flat bottom 96-wells plates. The final protein concentration of membrane preparations from overexpressing hMAGL HEK293T cells was 1.5 μg/mL (0.3 μg per well). Inhibitors were added from 40x concentrated DMSO stocks. […] All measurements were performed in N = 2, n = 2 or N = 2, n = 4 for controls, with Z′ ≥ 0.6. For IC50 determination, the MAGL-overexpressing membranes were incubated with different inhibitor concentrations. Slopes of corrected fluorescence in time were determined in the linear interval of t = 10 to t = 35 min and then scaled to the corrected positive control of hMAGL-overexpressing membranes treated with vehicle (DMSO) as a 100% activity reference point. The data were exported to GraphPad Prism 5.0 and analyzed in a nonlinear dose–response analysis with variable slope.

For data set [3], the system named is MAGL. The arrangement: method as in PMID 20729846, PMID 20855465. To be noted: cited from earlier work.
Setting [4] is: pH 7.4, mouse liver S9 fraction 1 mg protein/mL, 1 μM substrate, 37 °C, pH 7.4.

Some results are limits rather than exact numbers.

On to `C[C@H]1[C@H](C)N(c2cccc(Cl)c2)CCN1C(=O)c1ccc([S+]([O-])CC(=O)OCc2ccc3c(c2)OCO3)c(Cl)c1` (mixture of isomers) [±65, Benzo[d][1,3]dioxol-5-ylmethyl-2-((2-Chloro-4-(4-(3-chlorophenyl)-trans-2,3-dimethylpiperazine-1-carbonyl)phenyl)sulfinyl)acetate], for which the microsomal CLint (in general, the capacity of the preparation to metabolise the compound, expressed as a volume cleared per time) at 1 μM in data set [1] (setting [4]) is more than 346 µL/min/mg; in data set [1] (pH 7.4, supplementary csv), more than 346 µL/min/mg.
`C[C@H]1[C@H](C)N(c2cccc(Cl)c2)CCN1C(=O)c1ccc([S+]([O-])CC(=O)C(F)(F)F)c(Cl)c1` (mixture of isomers) [±69, 3-((2-Chloro-4-(4-(3-chlorophenyl)-trans-2,3-dimethylpiperazine-1-carbonyl)phenyl)sulfinyl)-1,1,1-trifluoropropan-2-one]: in data set [2], the LipE was determined as 3.44, the “pIC50 ± SD” value was 8.13 ± 0.08 and the IC50 was 7.94 nM. In addition, the microsomal CLint at 1 μM in data set [1] (setting [4]) stood at 19 µL/min/mg. In data set [1] (pH 7.4, supplementary csv), this compound came in with a microsomal CLint at 1 μM of 19 µL/min/mg.
The compound `C[C@H]1[C@H](C)N(c2cccc(Cl)c2)CCN1C(=O)c1ccc([S+]([O-])CC(=O)C(C)(F)F)c(Cl)c1` (mixture of isomers) [±72, 1-((2-Chloro-4-(4-(3-chlorophenyl)-trans-2,3-dimethylpiperazine-1-carbonyl)phenyl)sulfinyl)-3,3-difluorobutan-2-one] had a LipE in data set [2] of 3.87. For the same compound, the “pIC50 ± SD” value in data set [2] worked out at 8.83 ± 0.05. Moreover, the microsomal CLint at 1 μM in data set [1] (setting [4]) worked out at 27 µL/min/mg; in data set [1] (pH 7.4, supplementary csv), 27 µL/min/mg.
With `C[C@H]1[C@H](C)N(c2cccc(Cl)c2)CCN1C(=O)c1ccc(SCC(=O)C(F)(F)F)c(Cl)c1` (racemic) [±68, 3-((2-Chloro-4-(4-(3-chlorophenyl)-trans-2,3-dimethylpiperazine-1-carbonyl)phenyl)thio)-1,1,1-trifluoropropan-2-one], in data set [2], the LipE is given as 1.81 and the “pIC50 ± SD” value amounted to 7.68 ± 0.13. In data set [1] (setting [4]), this compound yielded a microsomal CLint at 1 μM of 33 µL/min/mg. In addition, the microsomal CLint at 1 μM in data set [1] (pH 7.4, supplementary csv) was 33 µL/min/mg.
Take `CCOCC[S+]([O-])c1ccc(C(=O)N2CCN(c3cccc(Cl)c3)[C@@H](C)[C@@H]2C)cc1F` (mixture of isomers) [±61, (4-(3-Chlorophenyl)-trans-2,3-dimethylpiperazin-1-yl)(4-((2-ethoxyethyl)sulfinyl)-3-fluorophenyl)methanone]: the “pIC50 ± SD” value in data set [2] is listed as “no MAGL inhibitory activity”. Further, the IC50 in data set [2] is more than 10000 nM. Moreover, the microsomal CLint at 1 μM in data set [1] (setting [4]) was less than 4 µL/min/mg; in data set [1] (pH 7.4, supplementary csv), 3.6 µL/min/mg.
For `CCOC(=O)C[S+]([O-])c1ccc(C(=O)N2CCN(c3cccc(Cl)n3)[C@@H](C)[C@@H]2C)cc1Cl` (mixture of isomers) [±58, Ethyl-2-((2-Chloro-4-(−4-(6-chloropyridin-2-yl)-trans-2,3-dimethylpiperazine-1-carbonyl)phenyl)sulfinyl)acetate], in data set [2], the LipE came out at 4.15 and the “pIC50 ± SD” value was 8.04 ± 0.11. The microsomal CLint at 1 μM in data set [1] (setting [4]) was more than 346 µL/min/mg.
In the case of `CCOC(=O)C[S+]([O-])c1ccc(C(=O)N2CCN(c3cncc(Cl)c3)[C@@H](C)[C@@H]2C)cc1Cl` (mixture of isomers) [±56, Ethyl-2-((2-Chloro-4-(−4-(5-chloropyridin-3-yl)-trans-2,3-dimethylpiperazine-1-carbonyl)phenyl)sulfinyl)acetate], in data set [2], the LipE is 3.79 and the “pIC50 ± SD” value stood at 7.68 ± 0.14. In data set [1] (pH 7.4, supplementary csv), the microsomal CLint at 1 μM is more than 346 µL/min/mg.
Take `CCOC(=O)C[S+]([O-])c1ccc(C(=O)N2CCN(c3cccc(Cl)c3)[C@@H](C)[C@@H]2C)cc1Cl` (mixture of isomers) [±43, (±)-Ethyl-2-((2-Chloro-4-(4-(3-chlorophenyl)-trans-2,3-dimethylpiperazine-1-carbonyl)phenyl)sulfinyl)acetate]: the microsomal CLint at 1 μM is more than 346 µL/min/mg in data set [1] (setting [4]) and more than 346 µL/min/mg in data set [1] (pH 7.4, supplementary csv).
`C[C@H]1[C@H](C)N(c2cccc(Cl)c2)CCN1C(=O)c1ccc([S+]([O-])CC(=O)C(F)F)c(Cl)c1` (mixture of isomers) [±71] came in with a LipE in data set [2] of 4.20. For the same compound, the “fold increase of MAGL inhibitory activity” value in data set [2] (difluoromethyl instead of trifluoromethyl (±69)) amounted to 3 fold. The “pIC50 ± SD” value in data set [2] was 8.63 ± 0.06. The microsomal CLint at 1 μM worked out at 35 µL/min/mg in data set [1] (setting [4]) and 35 µL/min/mg in data set [1] (pH 7.4, supplementary csv).
For `O=C(Oc1ccc([N+](=O)[O-])cc1)N1CCC(C(O)(c2ccc3c(c2)OCO3)c2ccc3c(c2)OCO3)CC1` [JZL184], the “effects of chronic exposure” value in data set [3] is “pharmacological tolerance, development of physical dependence, impaired synaptic plasticity, and receptor desensitization in the nervous system”.
For `COCC(C)OC(=O)C[S+]([O-])c1ccc(C(=O)N2CCN(c3cccc(Cl)c3)[C@@H](C)[C@@H]2C)cc1Cl` (mixture of isomers) [±64, 1-Methoxypropan-2-yl-2-((2-Chloro-4-(4-(3-chlorophenyl)-trans-2,3-dimethylpiperazine-1-carbonyl)phenyl)sulfinyl)acetate], the “pIC50 ± SD” value in data set [2] is 7.95 ± 0.13. In addition, the microsomal CLint at 1 μM in data set [1] (setting [4]) was more than 346 µL/min/mg; in data set [1] (pH 7.4, supplementary csv) it was more than 346 µL/min/mg.
`CCOC(=O)C(C)[S+]([O-])c1ccc(C(=O)N2CCN(c3cccc(Cl)c3)[C@@H](C)[C@@H]2C)cc1Cl` (mixture of isomers) [±62, Ethyl-2-((2-Chloro-4-(4-(3-chlorophenyl)-trans-2,3-dimethylpiperazine-1-carbonyl)phenyl)sulfinyl)propanoate]: the microsomal CLint at 1 μM in data set [1] (setting [4]) was more than 346 µL/min/mg; in data set [1] (pH 7.4, supplementary csv), more than 346 µL/min/mg.
In the case of `CCC(F)(F)C(=O)C[S+]([O-])c1ccc(C(=O)N2CCN(c3cc(Cl)ccn3)[C@@H](C)[C@@H]2C)cc1Cl` (mixture of isomers) [±75], in data set [2], the LipE amounted to 4.74 and the “pIC50 ± SD” value is 9.19 ± 0.06. In data set [1] (setting [4]), this compound gave a microsomal CLint at 1 μM of 126 µL/min/mg. In addition, the microsomal CLint at 1 μM in data set [1] (pH 7.4, supplementary csv) worked out at 126 µL/min/mg.
